Read-outs that look alike come from different tables or passages of the source.
Experiments:
Format in all cases: cell-based, human
[1] = tested on: MDA-MB-231 cells; assay: Cell viability assay (Guava ViaCount flow cytometry), MDA-MB-231; conditions: for IC50: read-out: IC50 of cell viability
Method: (§1) For all cell viability experiments, except experiments involving MMS treatment, cells were seeded into the media containing indicated concentrations of tested compounds or corresponding amounts of DMSO in controls. The concentration of DMSO in media was 0.1%. MDA-MB-231 cells were seeded into 24-well plates at 3.5 × 10^4 cells/well for cells for a 4-day treatment or at 5000 cells/well for a 10-day treatment. MCF 10A cells were seeded into 24-well plates at 1.5 × 10^4 cells/well for a 4-day treatment or at 500 cells/well for a 10-day treatment. In the case of 10-day treatments, the media with compounds were renewed twice on the 4th and the 7th days of treatments. After completion of the treatments, cells were harvested, and their viability was determined by flow cytometry with Guava ViaCount reagent (Luminex; Austin, TX USA). Data were analyzed using the Guava ViaCount software (Millipore; Burlington, VT, USA). The IC50 values were calculated using the GraphPad Prism 5 software (San Diego, CA, USA).

[2] = tested on: MCF 10A cells; assay: Cell viability assay (Guava ViaCount flow cytometry), MCF 10A
Method: as §1

[3] = tested on: MDA-MB-231 cells; assay: Cell viability of MDA-MB-231 after 1 h MMS treatment; conditions: MDA-MB-231, 100 µM MMS 1 h
Method: For experiments in which MDA-MB-231 cells were treated with MMS, cells were seeded in 24-well plates at 3.5 × 10^4 cells/well. The next day, cells were treated with 100 µM MMS (Sigma, St. Louis, MO, USA) for 1 h in the presence of increasing concentrations of olaparib and 2 µM B02-iso where indicated. Then, cells were washed twice with PBS, which was followed by incubation with olaparib at indicated concentrations and 2 µM B02-iso where indicated for 4 days. After completion of the treatments, cells were harvested, and their viability was determined by flow cytometry using Guava ViaCount reagent (Luminex; Austin, TX, USA). Data were analyzed using the Guava ViaCount software (Millipore; Burlington, VT, USA).

[4] = tested on: RAD51 foci in U-2 OS IndDR-GFP cells; assay: RAD51 foci formation (immunofluorescence); conditions: 30 µM
Method: (§2) U-2 OS IndDR-GFP cells were seeded into 8-well polystyrene vessel culture slides at 5 × 10^4 cells/well. The next day, cells were pretreated with B02-iso or 0.1% DMSO (for control cells) for 1 h, followed by the treatment with 5 µM cisplatin for 4 h or left untreated (for control cells). After 4 h of incubation, cells were placed on ice, washed with PBS buffer (twice, 5 min each), pretreated with 0.5% Triton X-100 for 5 min, washed with PBS (twice, 5 min each). Cells were removed from ice and fixed with 4% methanol-free formaldehyde (Pierce; Waltham, […], USA) in PBS for 10 min. Cells were washed with PBS (twice, 5 min each), placed on ice, and permeabilized with 1% Triton X-100 in PBS for 10 min. Cells were removed from ice, washed with PBS (once, 5 min), blocked with a blocking buffer (5% BSA (Bovine Serum Albumin) in PBS) for 30 min, and incubated with rabbit polyclonal RAD51 antibody (1:1000, GeneTex, GTX100469) and mouse monoclonal anti-phospho-histone H2A.X (Ser 139) antibody (1:20,000, clone JBW301, Millipore 05-636) in blocking buffer, containing 0.3% Triton X-100 overnight at 4 °C. […] For foci quantification, 50 cells were chosen for each treatment condition at random, and foci number was counted using ImageJ software. […]

[5] = tested on: γ-H2A.X foci in U-2 OS IndDR-GFP cells; assay: γ-H2A.X foci formation (immunofluorescence); conditions: indicated concentrations, cisplatin-treated cells
Method: as §2

[6] = tested on: MCF 10A cells; assay: EdU cell proliferation assay, MCF 10A; conditions: 24 h
Method: (§3) Exponentially growing MDA-MB-231 and MCF 10A cells were seeded into 6-well plates at a density of 1.5 × 10^5 cells/well in the presence of indicated concentrations of B02-iso or 0.1% DMSO (for control cells). After 24 h of incubation, cells were labeled with 10 µM Edu (Invitrogen; Waltham, […], USA) for 1 h or left unlabeled in the control. Cells were harvested and centrifuged at 500× g, 4 °C for 5 min, and cell pellets were washed with PBS supplemented with 1% BSA, spun down, and fixed with 4% methanol-free formaldehyde (Pierce) in PBS for 15 min. Cells were washed with PBS containing 1% BSA, centrifuged 500× g for 5 min. Cell pellets were resuspended in PBS containing 0.1% Triton X-100 and incubated for 15 min for permeabilization. Cells were spun down, resuspended in freshly prepared Edu click labeling solution (1 mM CuSO4, 1.25 µM Alexa Fluor 488 Azide (Invitrogen; Waltham, […], USA), 50 mM ascorbic acid in PBS) and incubated for 30 min in the dark. Cells were washed twice with PBS containing 0.1% Triton X-100, resuspended in the same buffer, and analyzed for Edu incorporation by flow cytometry using the Guava easyCyte system (Millipore; Burlington, VT, USA) with the InCyte software (Millipore; Burlington, VT, USA).

[7] = tested on: MDA-MB-231 cells; assay: EdU cell proliferation assay, MDA-MB-231; conditions: 24 h
Method: as §3

SMILES: O=c1nc(/C=C/c2cccnc2)n(Cc2ccccc2)c2ccccc12 [B02-iso]
- inhibition at 2 µM ([1]; Homo sapiens, 96 h, MDA-MB-231, 2 µM, 4-day treatment, read-out: Growth inhibition): < 5%
- IC50 ([1]; Homo sapiens, MDA-MB-231, 96 h, MDA-MB-231, 4-day treatment): 4.1 µM
- IC50 ([1]; Homo sapiens, MDA-MB-231, 240 h, MDA-MB-231, 10-day treatment, compound alone): 2.6 µM
- Effect on cell viability, compound alone ([1]; MDA-MB-231, 1.8 µM, 10-day treatment): does not impair cell viability
- Fold increase in efficiency of olaparib killing ([1]; MDA-MB-231, 10-day treatment, 1.8 µM B02-iso): 2.4 fold
- Times lower sensitivity of MCF 10A compared with MDA-MB-231 ([2]; 4-day treatment, ratio of IC50): approximately 3
- IC50 ([2]; Homo sapiens, 96 h, MCF 10A, 4-day treatment): 11.9 µM
- Effect on cell viability in combination with olaparib ([2]; MCF 10A, 1.8 µM B02-iso, same range of olaparib concentrations, 10-day treatment): did not decrease cell viability
- Sensitization of cells to B02-iso by MMS in the absence of olaparib ([3]; 4-day treatment): did not sensitize
- Effect on cell killing by MMS plus olaparib ([3]; olaparib, 2 µM B02-iso, 4 days): further significantly increased
- RAD51 foci formation, compound alone ([4]; 1 h, no cisplatin): did not significantly affect RAD51 foci formation
- RAD51 foci formation induced by cisplatin ([4]; 1 h pretreatment, then 5 µM cisplatin 4 h): almost completely eliminated RAD51 foci formation
- Level of γ-H2A.X foci [5]: did not reduce the level of γ-H2A.X foci
- Fraction of DNA-replicating cells (EdU) ([6]; 4 µM): dropped approximately two-fold
- Fraction of DNA-replicating cells (EdU) ([6]; 8 µM): abolished almost entirely
- Fraction of DNA-replicating cells (EdU) ([7]; MDA-MB-231, 4 µM): remained unchanged
- Reduction of fraction of DNA-replicating cells (EdU) ([7]; MDA-MB-231, 8 µM): approximately 20%
